Results taken from patent US5567704A, “R-enatiomerically pure hydroxylated xanthine compounds to treat baldness” (priority 1995, dated 1996).

Tests used:
murine B-cell = assay: B-cell proliferation stimulated by anti-mu antibody and/or IL-4; type: cell-based; settings: anti-mu antibody crosslinked and/or IL-4, FIG. 2
Experimental: A B-cell proliferation assay determines the effect of the inventive compounds on inhibiting proliferation of stimulated B-cells, stimulated by an anti-mu antibody (40 μg/ml), IL-4 or PMA (2.5 nM). Ramos B-cell tumor cells or murine splenocytes can be incubated with a stimulating agent, an inventive compound and tritiated thymidine to measure inhibition of cell proliferation caused by the stimulating agent.

Balb/C mice = assay: 5-fluorouracil (5-FU) induced bone marrow suppression in mice; type: in vivo, mouse
Experimental: This example illustrates the effect of CT1501R on 5-fluorouracil (5-FU) induced bone marrow suppression in mice. We determined if CT1501R influenced the time required for hematopoietic reconstitution following cytotoxic chemotherapy in a murine model. Female Balb/C mice (VAF, Charles River Laboratories, 6-8 wks of age approximately 17.3-18.5 g) were treated with 5-FU at adose of 200 mg/kg intraperitoneally (i.p.) in experiment 1 or […] in experiment 2. CT1501R or vehicle control was given at a dose of 100 μg/kg i.p. bid starting 1 day prior to 5-FU and was continued until the last mice were sacrificed on day 13 in experiment 1 and day 15 in experiment 2. Controls included mice treated with CT1501R or vehicle without 5-FU. Mice (4 per group) were sacrificed starting 2 days after 5-FU by cardiac puncture under halothane anesthesia followed by cervical dislocation and had total white blood cell counts and differential counts performed. Platelet counts were performed using phase-contrast microscopy in duplicate. Femurs were harvested and the number of granulocyte-macrophage colony forming cells (CFU-GM) per femur were measured using a standard assay (Terry Fox Laboratories, Vancouver, British Columbia) using pokeweed mitogen spleen conditioned medium as the growth factor. Each femur was plated separately in triplicate and the mean and means for each experimental point was calculated. Standard deviations used for statistical analysis were deviations of the mean number of colonies measured for each femur.
Experiment 2 was similar to experiment 1 with the following exceptions: (1) the dose of 5-FU was decreased to 185 mg/kg; (2) daily blood draws were performed between days 10 and 15; and (3) platelet counts were performed.

smooth muscle cell = assay: smooth muscle proliferation stimulated by PDGF and IL-1; type: cell-based
Excerpt: CT1501R and PTX were separately added to the cells two hours prior to activation with PDGF and IL-1.

[1] = test system: TNF-α release from LPS stimulated PEC cells; assay: TNF-α release from LPS stimulated PEC macrophages (ELISA); type: cell-based, murine; settings: Mus musculus, Macrophage
Experimental: Murine peritoneal exudate cell macrophages (PEC) were isolated by perfusion of mouse peritoneum and plated into 96-well trays at 5×10^5 cells per well. […] At various times thereafter, supernatants were removed and levels of either TNF-α or IL-1α were assayed using commercial 96-well microtiter immunoassay kits (Genzyme; TNF; Endogen, Boston, Mass.; IL-1α) according to manufacturer's specifications. […] 4000 cells were plated into each well of a 96-well microtiter plate and allowed to incubate for 72 hrs at 37° C. […] Either the HUVEC or U937 cells were stimulated with either LPS, IL-1α or TNF-α for 12 hrs. For the adhesion assay, U937 cells were labeled with the fluorescent viability stain, 2',7'-bis-(2-carboxyethyl)-5-(and-6)-carboxyfluorescein acetoxymethyl ester (BCECF). […] The cells were washed once with full media and 50,000 cells/well added to the HUVEC cultures. The samples were incubated at 37° C. for 30 min, inverted and centrifuged for 10 min at 400× g. After addition of […] Hanks Balanced Salt Solution (HBSS), the microtiter plate was then analyzed on a Millipore Cytofluor fluorescent plate reader (excitation 488 nm; emission 525 nm).
Cells were pretreated with […] CT1501R and supernatants assayed by ELISA for released TNF-α as a function of time following LPS stimulation. […]

IL-1α = assay: mouse plasma IL-1α ELISA after endotoxin; type: in vivo; settings: for Plasma IL-1: LPS + CT-1501R
Experimental: For ELISA measurements of cytokine levels in plasma, blood was collected by retro-orbital or cardiac puncture of anesthetized mice, immediately centrifuged and the EDTA plasma stored at -70° C. Particulate free plasma was thawed on ice and cytokine levels determined utilizing commercial ELISA assays with normal mouse plasma used to generate standard curves. Murine tumor necrosis factor-α and interleukin-1αkits were purchased from Genzyme (Cambridge, Mass.) and Endogen (Boston, Mass.), respectively. Each data point was an average of two ELISA measurements made from EDTA […] pooled from three mice. The data summarized in Table 3 were compiled from two independent experiments; data from Table 4 and 5 were from single experiments of three mice per data point.
In particular, peak levels observed at 6, 12 and 18 hours post endotoxin were decreased 1.2, 4.3 and 3.2-fold, respectively. Finally, IL-6 measurements were made in a similar manner (Table 6, FIG. 8).

With `C[C@@H](O)CCCCn1c(=O)c2c(ncn2C)n(C)c1=O` [CT1501R, (R)-1-(5-hydroxyhexyl)-3,7-dimethylxanthine] the “inhibition of B-cell proliferation” value (murine B-cell) was “inhibited B-cell proliferation”, the “mouse survival, Kaplan-Meier plot” value (Balb/C mice; 5-FU treated mice, FIG. 14) was “improved survival” and the “rise in ANC and CFU-GM/femur associated with vehicle injections” value (Balb/C mice; animals that did not receive 5-FU) was “prevented both the rise in ANC and rise in CFU-GM/femur”. The “increase in the number of CFU-GM/femur compared to control animals” value (Balb/C mice; during hematopoietic recovery) was “approximately two-fold”, the CFU-GM/femur (Balb/C mice; experiment 1, day 13, vs vehicle control and day 0 animals) was “significantly more CFU-GM/femur on day 13” and the “mean ±SD ANC” value (Balb/C mice; experiment 1, day 13 after 5-FU) was 440±17 /mm^3. For the same compound, the “WBC of 5-FU treated mice” value (Balb/C mice; experiment 1, days 6 and 10) was “significantly lower in vehicle treated controls than in CT1501R treated mice”, the “number of cells per femur” value (Balb/C mice; experiment 2) was “increased during hematopoietic recovery compared to control animals” and the WBC (Balb/C mice; experiment 2, FIG. 10) was “significantly higher WBC's”. The “platelet count nadir and rate of recovery” value (Balb/C mice; experiment 2, FIG. 11) was “increased compared to vehicle control animals”, the neutrophil recovery (Balb/C mice; experiment 2, FIG. 12) was “accelerated” and the “WBC and ANC” value (Balb/C mice; mice without 5-FU, i.p. bid) was “remained within 1 SD of control values”. The adverse effects (Balb/C mice; mice without 5-FU, i.p. bid) was “no apparent adverse effects”, the “activity compared with PTX, smooth muscle cell proliferation” value (smooth muscle cell; PDGF and IL-1, FIG. 4) was “more active than PTX” and the “inhibition of smooth muscle cell proliferation” value (smooth muscle cell; PDGF and IL-1, drug added two hours prior, FIG. 4) was “inhibited smooth muscle cell proliferation at the higher doses tested”. The IC50 ([1]; LPS stimulated PEC, drug 1 hour before LPS, FIG. 18, read-out: concentration for 50% inhibition of TNF-α release (IC50)) was about 30 µM, the inhibition at 500 µM ([1]; at 500 μM, read-out: inhibitory effects, % of the maximal LPS stimulation (1428 pg/ml)) was about 40% and the “fold decrease of plasma IL-1α” value (IL-1α; 6 hours post endotoxin) was 1.2 fold. For the same compound, the “fold decrease of plasma IL-1α” value (IL-1α; 12 hours post endotoxin) was 4.3 fold, the “fold decrease of plasma IL-1α” value (IL-1α; 18 hours post endotoxin) was 3.2 fold and the “Plasma IL-1” value (IL-1α; 0 hours post LPS) was 0 pg/mL. The “Plasma IL-1” value (IL-1α; 0.17 hours post LPS) was 0 pg/mL, the “Plasma IL-1” value (IL-1α; 0.5 hours post LPS) was 22 pg/mL and the “Plasma IL-1” value (IL-1α; 1 hour post LPS) was 10.8 pg/mL. For the same compound, the “Plasma IL-1” value (IL-1α; 3 hours post LPS) was 33.2 pg/mL, the “Plasma IL-1” value (IL-1α; 6 hours post LPS) was 133 pg/mL and the “Plasma IL-1” value (IL-1α; 12 hours post LPS) was 32.3 pg/mL. For the same compound, the “Plasma IL-1” value (IL-1α; 18 hours post LPS) was 46.7 pg/mL, the “Plasma IL-1” value (IL-1α; 24 hours post LPS) was 43.5 pg/mL and the “Plasma IL-1” value (IL-1α; 36 hours post LPS) was 18.8 pg/mL. For the same compound, the “Plasma IL-1” value (IL-1α; 48 hours post LPS) was 0 pg/mL.
